Results published in US6242452A, “7-aminopyrido[2,3-D]pyrimidine derivatives” (Nippon Zoki Pharmaceutical Co., Ltd., priority 1998, dated 2001).
Values belong to the molecule of their own block, whether it stands above or below them.

Tests used:
[1] = Concentration in blood of guinea pigs; format: in vivo; settings: oral, 30 mg/kg in 1% methyl cellulose, plasma, HPLC; for AUC / Cmax / half-life / Tmax: guinea pig; for AUC: read-out: AUC 0-lim, area under a curve of concentration in blood vs. time; for Cmax: read-out: Cmax, maximum concentration in blood; for half-life: read-out: T1/2, half life in blood (converted); for Tmax: read-out: Tmax, time required for achieving the maximum concentration in blood
Method: Concentration in Blood of Guinea Pigs
Each test substance was orally administered at a dose of 30 mg/kg. It was suspended in 1% methyl cellulose and made into a preparation so as to make the administering dose 5 mL/kg. A group consisted of four animals and blood was collected after 30 minutes, 1 hour, 2 hours, 4 hours, 6 hours and 24 hours from the administration. (A feed was given after collection of the blood after 6 hours). Thus, each about […] (corresponding to four capillary tubes) of blood were collected with intervals using a heparintreated capillary tube and plasma was separated by a hematocrit centrifuge to prepare a plasma sample. A plasma sample of about […] was preserved at -80° C. until the measurement. Methanol ([…]) was added to […] of the plasma followed by mixing, the mixture was centrifuged at 1500×g for ten minutes at […] and the separated supernatant liquid was filtered through a membrane filter of […]. The filtrate was used as a sample for an HPLC, analyzed under the analyzing condition that the column was 100 mm×4.6 mm (inner diameter) of TSK-gel Super ODS, the flow rate was 1.0 mL/minute, the column temperature was 40° C., an injection amount was […], detection was done by UV of 225 nm and the mobile phase was water-acetonitrile (75:25 in terms of % by volume) and the maximum concentration in blood (Cmax), time required for achieving the maximum concentration in blood (Tmax), half life in blood (T1/2) and area under a curve of concentration in blood vs. time (AUC 0-lim) were determined. RS-25344 (Cell Signalling, 7(5), 527 (1995); Mol. Pharmacol., 48, 616 (1995)) and CR-77059 (J. Med. Chem., 34, 624 (1991); J. Pharmacol. Exp. Ther., 272, 3,1313 (1995)) were used as control drugs.

[2] = tested on: airway smooth muscle isolated from guinea pigs; assay: Relaxing action to smooth muscle of airway of guinea pigs (histamine-constricted); format: cell-based; settings: Cavia porcellus; guinea pig airway, constricted with 10^-4 M histamine, cumulative addition; read-out: EC50, concentration showing 50% of the maximum reaction (relaxation)
Excerpt: […] Action to Smooth Muscle of Airway of Guinea Pigs A guinea pig was killed by draining out the blood, the airway was isolated, and four airway pieces having a width of about 1 cm cut along the cartilage were connected by silk yarn to prepare an airway smooth muscle sample. The sample was hung with a load of about 0.5 g in a 5-mL Magnus vessel filled with a Tyrode solution and aerated with a mixed gas (95% O2 and 5% CO2). […] This was repeatedly treated with 10^-5 M of histamine and, after confirming that the constriction became constant, it was treated with 10^-4 M of histamine. After the maximum constriction reaction of the smooth muscle became constant, the test compound was added thereto starting from a low concentration cumulatively to investigate the relaxing action. […] Pat. […] Pat. No. 4,808,587 to Go et al and in U.S. Pat. No. 5,776,942 to Furukawa et al) and theophylline were used as control agents.

[3] = tested on: smooth muscle of blood vessel isolated from rats; assay: Influence on continuous constriction of smooth muscle of blood vessel isolated from rats (noradrenaline-constricted pulmonary main artery); format: cell-based; settings: rat pulmonary main artery, constricted with 10^-7 M noradrenaline, 37° C.; read-out: EC50, concentration showing 50% of the maximum reaction (relaxation)
Method: Influence on Continuous Constriction of […] Smooth Muscle of Rats
The back of the head of a rat was struck to cause a cerebral concussion, carotid arteries on both sides were immediately cut and the pulmonary main artery was isolated. The isolated artery was fully aerated with a mixed gas (95% O2 and 5% CO2), placed in a Krebs-Henselite solution warmed at 37° C., excessive tissues were removed as much as possible and a spiral sample (having a width of about 2 mm and a length of 15 mm) was prepared according to a method of Furchgott, et al. The blood vessel sample was hung with a load of about 0.5 g in a 5-mL Magnus vessel filled with a Krebs-Henseleit solution and aerated with a mixed gas (95% O2 and 5% CO2). After the sample was allowed to stand for 30 minutes to one hour, it was treated with noradrenaline (final concentration: 10^-7 M) and the constricting reaction was amplified via an amplifier for blood pressure using an FD pickup and recorded on a recorder. Noradrenaline (10^-7 M) was repeatedly applied and, after confirming that the constriction became constant, 10^-7 M of noradrenaline was applied. After the maximum shrinking reaction of the smooth muscle became constant, the test compound was added thereto starting from a low concentration cumulatively to investigate the relaxing action. A dose vs. reaction curve was prepared from the isotonic reaction of various concentrations of the test compound and an EC50, a concentration showing 50% of the maximum reaction, was determined.

Mice = assay: Influence on general symptoms of mice (modified Irwin's method); format: in vivo; settings: for Death: oral, 5 mice per group, until the next day
Method: Influence on General Symptoms of Mice
Mice having no abnormality in their appearance before administration of the test drugs were selected, and five mice were used for each group. Oral administration of the test compound was carried out and, 30 minutes, one hour and two hours thereafter, observations were conducted according to the modified method of Irwin's method for observing the general symptoms of mice. Degree of the symptom was evaluated in terms of (+) and (-) and, when the symptom was apparently severe, it was mentioned as (++). Also, death was observed until the next day of the administration.
1) Suppression of spontaneous motility: When mice were transferred from a home cage to a cage for symptom observation and, if motion of the mice was less than the non-administered group at that time, that was evaluated as (+).
2) Muscle relaxation: When forefeet of mice were hung on a wire stretched horizontally so that the mice were hung by means of the forefeet and, if their reaction at that time for climbing up the wire took a longer time than the non-administered group, that was evaluated as (+).
4) Blepharoptosis: If 1/4 or more was closed as compared with the non-administered group, that was evaluated as (+).
5) Salivation: If salivation was noted a little around the mouth, that was evaluated as (+).
6) Death: If dead case was noted, that was mentioned as such.
5-Amino-1,3-diethyl-1,2,3,4-tetrahydropyrido[2,3-d]-pyrimidine-2,4-dione (Control Compound B; a compound mentioned in Japanese Laid-Open Patent Publication Sho-63/45279 and in U.S. Pat. Nos. 4,808,587 and 5,776,942) was used as a control drug.

Structure (SMILES): COC(=O)c1cccc(-n2c(=O)n(Cc3ccccc3)c(=O)c3cccnc32)c1 [CP-77059, reference compound]
Concentration in blood (in words, Table 6) [1]: less than identification limit

Structure (SMILES): CCn1c(=O)c2ccc(N)nc2n(-c2cc(OC)cc(OC)c2)c1=O [Compound 5, 7-amino-3-ethyl-1-(3,5-dimethoxyphenyl)-1,2,3,4-tetrahydropyrido[2,3-d]pyrimidine-2,4-dione]
EC50 [2]: 1700 nM
EC50 [3]: > 100000 nM
Blepharoptosis (Mice; mouse, in vivo, po, 1000 mg/kg): (+) × 3
Muscle relaxation (Mice; mouse, in vivo, po, 1000 mg/kg): (+) × 3
Suppression of spontaneous motility (Mice; mouse, in vivo, po, 1000 mg/kg): (+) × 2
Death (Mice; 1000 mg/kg): 0
AUC [1]: 458 µg·h/mL
Cmax [1]: 30000 ng/mL
half-life [1]: 12.1 h
Tmax [1]: 3 h

Structure (SMILES): CCCn1c(=O)c2ccc(N)nc2n(-c2cc(OC)cc(OC)c2)c1=O [Compound 6, 7-amino-1-(3,5-dimethoxyphenyl)-1,2,3,4-tetrahydro-3-propylpyrido[2,3-d]pyrimidine-2,4-dione]
EC50 [2]: 400 nM
EC50 [3]: > 100000 nM
Blepharoptosis (Mice; mouse, in vivo, po, 300 mg/kg): (+) × 1
Suppression of spontaneous motility (Mice; mouse, in vivo, po, 300 mg/kg): (+) × 1
Blepharoptosis (Mice; mouse, in vivo, po, 1000 mg/kg): (+) × 2
Muscle relaxation (Mice; mouse, in vivo, po, 1000 mg/kg): (+) × 2
Suppression of spontaneous motility (Mice; mouse, in vivo, po, 1000 mg/kg): (+) × 2
Death (Mice; 300 mg/kg): 0
Death (Mice; 1000 mg/kg): 0
AUC [1]: 256 µg·h/mL
Cmax [1]: 13700 ng/mL
half-life [1]: 28.4 h
Tmax [1]: 4 h

Structure (SMILES): CCCCn1c(=O)c2ccc(N)nc2n(-c2cc(OC)cc(OC)c2)c1=O [Compound 7, 7-amino-3-butyl-1-(3,5-dimethoxyphenyl)-1,2,3,4-tetrahydropyrido[2,3-d]pyrimidine-2,4-dione]
EC50 [2]: 590 nM
Blepharoptosis (Mice; mouse, in vivo, po, 300 mg/kg): (+) × 1
Muscle relaxation (Mice; mouse, in vivo, po, 300 mg/kg): (+) × 2
Suppression of spontaneous motility (Mice; mouse, in vivo, po, 300 mg/kg): (+) × 2
Muscle relaxation (Mice; mouse, in vivo, po, 1000 mg/kg): (+) × 3
Death (Mice; 300 mg/kg): 0
Death (Mice; 1000 mg/kg): 0
AUC [1]: 28.6 µg·h/mL
Cmax [1]: 1600 ng/mL
half-life [1]: 131 h
Tmax [1]: 15 h

Structure (SMILES): COc1cc(OC)cc(-n2c(=O)n(Cc3ccccc3)c(=O)c3ccc(N)nc32)c1 [Compound 8, 7-amino-3-benzyl-1-(3,5-dimethoxyphenyl)-1,2,3,4-tetrahydropyrido[2,3-d]pyrimidine-2,4-dione]
EC50 [2]: 320 nM

Structure (SMILES): COc1cc(OC)cc(-n2c(=O)n(CC(C)C)c(=O)c3ccc(N)nc32)c1 [Compound 15]
EC50 [2]: 210 nM
EC50 [3]: > 100000 nM
AUC [1]: 134 µg·h/mL
Cmax [1]: 10100 ng/mL
half-life [1]: 9.8 h
Tmax [1]: 2.3 h

Structure (SMILES): Nc1ccc2c(=O)n(Cc3ccccc3)c(=O)n(-c3ccccc3)c2n1 [Compound 16, 7-amino-3-benzyl-1,2,3,4-tetrahydro-1-phenylpyrido[2,3-d]pyrimidine-2,4-dione]
EC50 [2]: 23 nM
EC50 [3]: 50100 nM

Structure (SMILES): Nc1ccc2c(=O)n(Cc3ccncc3)c(=O)n(-c3ccccc3)c2n1 [Compound 17, 7-amino-1,2,3,4-tetrahydro-1-phenyl-3-(4-picolyl) pyrido[2,3-d]pyrimidine-2,4-dione]
EC50 [2]: 19 nM

Structure (SMILES): CCn1c(=O)c2c(N)ccnc2n(CC)c1=O [Control Compound B, 5-Amino-1,3-diethyl-1,2,3,4-tetrahydropyrido[2,3-d]-pyrimidine-2,4-dione, reference compound]
EC50 [2]: 830 nM
Blepharoptosis (Mice; mouse, in vivo, po, 100 mg/kg): (+) × 2
Muscle relaxation (Mice; mouse, in vivo, po, 100 mg/kg): (+) × 3
Passiveness (Mice; mouse, in vivo, po, 100 mg/kg): (+) × 1
Suppression of spontaneous motility (Mice; mouse, in vivo, po, 100 mg/kg): (+) × 3
Suppression of spontaneous motility (Mice; mouse, in vivo, po, 300 mg/kg): (+) × 3
Death (Mice; 100 mg/kg): 0
Death (Mice; 300 mg/kg): 0

Structure (SMILES): Cn1c(=O)c2[nH]cnc2n(C)c1=O [theophylline, reference compound]
EC50 [2]: 51000 nM

Continued, values first:

EC50 [2]: 61 nM
EC50 [3]: > 100000 nM
Structure (SMILES): COc1cc(OC)cc(-n2c(=O)n(Cc3ccncc3)c(=O)c3ccc(N)nc32)c1 [Compound 18, 7-amino-1-(3,5-dimethoxyphenyl)-1,2,3,4-tetrahydro-3-(4-picolyl)pyrido[2,3-d]pyrimidine-2,4-dione]

EC50 [2]: 45 nM
Structure (SMILES): COc1ccc(Cn2c(=O)c3ccc(N)nc3n(-c3ccccc3)c2=O)cc1 [Compound 28, 7-amino-1,2,3,4-tetrahydro-3-(4-methoxybenzyl)-1-phenylpyrido[2,3-d]pyrimidine-2,4-dione]

EC50 [2]: 76 nM
Structure (SMILES): Nc1ccc2c(=O)n(Cc3ccc(F)cc3)c(=O)n(-c3ccccc3)c2n1 [Compound 29, 7-amino-3-(4-fluorobenzyl)-1,2,3,4-tetrahydro-1-phenylpyrido[2,3-d]pyrimidine-2,4-dione]

EC50 [2]: 21 nM
Structure (SMILES): Nc1ccc2c(=O)n(Cc3cccs3)c(=O)n(-c3ccccc3)c2n1 [Compound 37, 7-amino-1,2,3,4-tetrahydro-1-phenyl-3-(2-thienylmethyl)pyrido [2,3-d]pyrimidine-2,4-dione]

EC50 [2]: 40 nM
Structure (SMILES): Nc1ccc2c(=O)n(Cc3ccco3)c(=O)n(-c3ccccc3)c2n1 [Compound 38, 7-amino-3-(2-furfuryl)-1,2,3,4-tetrahydro-1-phenylpyrido [2,3-d]pyrimidine-2,4-dione]

EC50 [2]: 27 nM
Structure (SMILES): Nc1ccc2c(=O)n(Cc3ccsc3)c(=O)n(-c3ccccc3)c2n1 [Compound 39, 7-amino-1,2,3,4-tetrahydro-1-phenyl-3-(3-thienylmethyl)pyrido [2,3-d]pyrimidine-2,4-dione]

EC50 [2]: 1010 nM
Structure (SMILES): CCn1c(=O)c2ccc(N)nc2n(CC)c1=O [Control Compound A, 7-Amino-1,3-diethyl-1,2,3,4-tetrahydropyrido-[2,3-d]pyrimidine-2,4-dione, reference compound]

Concentration in blood (in words, Table 6) [1]: less than identification limit
Structure (SMILES): O=c1c2cccnc2n(-c2cccc([N+](=O)[O-])c2)c(=O)n1Cc1ccncc1 [RS-25344, reference compound]
